≈ marks a conversion by molar mass, not a printed value. Non-standard residues stand in square brackets, D forms with d. Residues, ends and D or L forms follow the SMILES beside them. *: point of attachment. Palmitoyl = CCCCCCCCCCCCCCCC(=O)*
Experiments:
Format in all cases: cell-based
[1] = system: Acinetobacter baumannii ATCC 19606; conditions: ATCC 19606, pH 7.4
Method: (§1) The antibacterial activity of the lipopeptides was examined in sterile 96-well plates (Nunc F96 microtiter plates) in a final volume of 100 μl as follows: Aliquots (50 μl) of a suspension containing bacteria at concentration of 1×10^6 Colony-Forming Units (CFU)/ml in culture LB (Lauria broth) medium (pH 7.4 or pH 5.5) were added to 50 μl of water containing the lipopeptide in serial 2-fold dilutions in water. Adjustment of the pH was done by diluted solutions of HCl and NaOH Inhibition of growth was determined by measuring the absorbance at 600 nm with a Microplate autoreader E1309 (Bio-Tek Instruments), after an incubation time of 18-20 h at 37° C. Antibacterial activities were expressed as the minimal inhibitory concentration (MIC), the concentration at which 100% inhibition of growth was observed after 18-20 h of incubation. The bacteria used were: Escherichia coli ATCC 25922, Acinetobacter baumannii ATCC 19606, Pseudomonas aeruginosa ATCC 27853, Staphylococcus aureus ATCC 6538P, Enterococcus faecalis ATCC 29212, Enterobacter cloacae ATCC 49141. The antibacterial activity of lipopeptides was also examined against resistant bacteria: methicilin-resistant Staphylococcus aureus (MRSA) ATCC 700698 and vancomycin-resistant Enterococcus faecium (VRE) ATCC 700221. If not indicated otherwise, the bacterial growth was detected at pH 7.4.

[2] = system: Staphylococcus aureus ATCC 6538P; conditions: ATCC 6538, pH 7.4
Method: as §1

[3] = system: Pseudomonas aeruginosa ATCC 27853; conditions: ATCC 27853, pH 7.4
Method: as §1

[4] = system: Candida albicans ATCC 10231; test: microbe, parasite or virus in culture; conditions: ATCC 10231, pH 7.4; read-out: Minimal Inhibitory Concentration, Candida Albicans (ATCC 10231)
Method: The antifungal activity of the lipopeptides was examined in sterile 96-well plates (Nunc F96 microtiter plates) in a final volume of 200 μL as follows: 100 µl of a suspension containing fungi at a concentration of 1×10^4 Colony-Forming Units (CFU)/ml in culture medium (RPMI 1640, 0.165 M MOPS with L-glutamine, without NaHCO3) at pH 7.4 or pH 5.5 (adjustment of the pH was done by diluted solutions of HCl and NaOH) were added to 100 μl of water containing the peptide in serial 2-fold dilutions in water. The fungi were incubated in the presence of the lipopeptides for 24-48 h at 35° C. in a Binder KB115 incubator under agitation. Growth inhibition was determined by measuring the absorbance at 620 nm with a Microplate autoreader E1309 (Bio-Tek Instruments). Antifungal activity is expressed as the minimal inhibitory concentration (MIC), the concentration at which 100% inhibition of fungi growth was observed after the incubation time mentioned above. The fungi used were: Aspergillus niger ATCC 9642, Candida albicans ATCC 10231 and Cryptococcus neoformans ATCC 66031. If not indicated otherwise, the fungi growth was detected at pH 7.4.

[5] = system: Aspergillus fumigatus ATCC 26430; test: microbe, parasite or virus in culture; conditions: ATCC 26430, pH 7.4; read-out: Minimal Inhibitory Concentration, Aspergillus Fomigatus (ATCC 26430)
[6] = system: Cryptococcus neoformans ATCC MYA-422; test: microbe, parasite or virus in culture; conditions: ATCC MYA-422, pH 7.4; read-out: Minimal Inhibitory Concentration, Cyrptococcus neoformans (ATCC MYA-422)
E. coli D21 = conditions: D21, pH 7.4

| MIC [4] [µM] | MIC [5] [µM] | MIC [6] [µM] | SMILES | Minimal Inhibitory Concentration, A. baumannii ATCC 19606 [1] [µM] | Minimal Inhibitory Concentration, S. aureus ATCC 6538P [2] [µM] | Minimal Inhibitory Concentration, P. aeruginosa ATCC 27853 [3] [µM] | Minimal Inhibitory Concentration, E. coli-D21 (E. coli D21) [µM] |
| --- | --- | --- | --- | --- | --- | --- | --- |
| >100 | >100 | >100 | CCCCCCCCCCCCCCCC(=O)N[C@@H](CCCCN)C(=O)N[C@@H](CCC(=O)O)C(N)=O [PA-KE] (Palmitoyl-Lys-Glu-NH2) | >100 | >100 | >100 | >100 |
| 25 (≈ 16 µg/mL) | 25 (≈ 16 µg/mL) | 12.5 (≈ 8.01 µg/mL) | CCCCCCCCCCCCCCCC(=O)N[C@@H](CCC(=O)O)C(=O)N[C@H](CCCCN)C(=O)N[C@@H](CCCCN)C(N)=O [PA-EKK, Palmitoyl-Glu-D-Lys-Lys-NH2] (Palmitoyl-Glu-[dK]-Lys-NH2) | >100 | 25 | >100 | 100 |

The remaining lines, values behind:

| SMILES | MIC [4] [µM] | MIC [5] [µM] | MIC [6] [µM] | Minimal Inhibitory Concentration, A. baumannii ATCC 19606 [1] [µM] | Minimal Inhibitory Concentration, S. aureus ATCC 6538P [2] [µM] | Minimal Inhibitory Concentration, P. aeruginosa ATCC 27853 [3] [µM] | Minimal Inhibitory Concentration, E. coli-D21 (E. coli D21) [µM] |
| --- | --- | --- | --- | --- | --- | --- | --- |
| CCCCCCCCCCCCCCCC(=O)N[C@@H](CCCNC(=N)N)C(=O)N[C@@H](CC(C)C)C(=O)N[C@H](CC(C)C)C(=O)N[C@@H](CCCNC(=N)N)C(N)=O [PA-RLLR, Palmitoyl-Arg-Leu-D-Leu-Arg-NH2] (Palmitoyl-RL[dL]R-NH2) | 25 (≈ 19.9 µg/mL) | 6.25 (≈ 4.96 µg/mL) | 1.56 (≈ 1.24 µg/mL) | >100 | 25 | >100 | >100 |
| CCCCCCCCCCCCCC(=O)N[C@@H](CCCCN)C(=O)N[C@@H](CCCCN)C(=O)N[C@@H](CCCCN)C(N)=O [MYR-KKK] | >100 | 100 (≈ 61.2 µg/mL) | 12.5 (≈ 7.65 µg/mL) | >100 | 12.5 |  | 25 |
| CCCCCCCCCCCCCCCC(=O)N[C@@H](CCCCN)C(N)=O [PA-K] | >100 | >100 | 6.25 (≈ 2.4 µg/mL) | >100 | >100 | >100 | >100 |

From patent US8445636B2, “Antimicrobial and anticancer lipopeptides” (Yeda Research & Development Co. Ltd., priority 2003, dated 2013)
